For assay [1], the system named is E. coli strains (e.g. BL21 or DH10beta). Kind of assay: Growth of E. coli on LB medium with varying antibiotic concentrations (MIC). In kind it is cell-based. To be noted: for Antibiotic concentration to which resistance is conferred: E. coli transformed with mutated GPR55 clones; for MIC: Escherichia coli.
In a further assay the target is T1, WT-GPR55 (Homo sapiens, UniProt Q9Y2T6).
T1 construct: expressed in transfected cells
Kind of assay: Genetic immunization of mice with protein boost, FACS analysis of sera on transfected cells. In kind it is in vivo. To be noted: C57BL6 mice; 50 μg cDNA in NanoTaxi, 2 DNA boosts, 1 boost with 50 μg purified protein in IFA; polyclonal sera by FACS. The protocol: The genetic immunization work was performed using NanoTaxi® at In-Cell-Art (Nantes, France). NanoTaxi® is a DNA delivery system optimized for genetic immunization where the delivered genetic material is formulated with a mixture of different chemical families of lipids and polymers.
The cDNA corresponding to the EMP012 of the GPR55 receptor was cloned into a pCMV-based vector and cell surface expression was confirmed via transient transfection of HEK293T and HeLa cells prior to immunogen administration.
C57BL6 mice were immunized with 50 μg EMP012 cDNA construct formulated into the NanoTaxi® for the primary challenge, followed by 2 boosts of 50 μg using the same NanoTaxi®-based formulation at two-weekly intervals, followed by 1 boost using 50 μg purified EMP012 protein in IFA adjuvant. In some instances, boosting was carried out for the in-vivo affinity maturation by somatic hypermutation of the primary antibody response. The level of immune response was assessed at regular intervals by FACS analysis using Hela cells transfected with an unrelated GPCR (left panel) or WT-GPR55 (right panel) (FIG. 7).

Where [2] appears, read: E. coli containing a plasmid encoding wild-type human GPR55.
The mark [3] stands for this setting: E. coli expressing certain constructs containing NTSR1 (rat, aa 43-424), read-out: Apparent MIC.

≈ marks a conversion by molar mass, not a printed value. Like-named read-outs stand apart in the source and are kept apart here.

T1 sequence (Q9Y2T6 with tags, fused parts or gaps): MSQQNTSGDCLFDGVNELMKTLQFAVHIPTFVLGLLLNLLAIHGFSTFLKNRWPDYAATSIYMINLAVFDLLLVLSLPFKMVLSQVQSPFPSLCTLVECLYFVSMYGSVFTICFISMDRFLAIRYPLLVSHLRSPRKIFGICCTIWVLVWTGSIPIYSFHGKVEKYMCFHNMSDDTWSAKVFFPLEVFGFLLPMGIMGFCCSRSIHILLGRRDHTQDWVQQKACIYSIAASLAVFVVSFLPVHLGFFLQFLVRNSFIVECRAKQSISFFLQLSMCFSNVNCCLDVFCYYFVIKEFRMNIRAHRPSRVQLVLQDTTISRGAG

In the case of `CC1(C)S[C@@H]2[C@H](NC(=O)C(C(=O)O)c3ccccc3)C(=O)N2[C@H]1C(=O)O` (some centres unmarked) [carbenicillin], the “Antibiotic concentration to which resistance is conferred” value in assay [1] is reported as more than 80 mg/L. In addition, the results for the MIC in assay [1] (setting [2]) and in assay [1] (setting [3]) were approximately 40 µg/mL (≈ 106 µM) and more than 75 µg/mL, respectively.
Consider `NC[C@H]1O[C@H](O[C@H]2[C@H](O)[C@@H](O[C@H]3O[C@H](CO)[C@@H](O)[C@H](N)[C@H]3O)[C@H](N)C[C@@H]2N)[C@H](O)[C@@H](O)[C@@H]1O` [kanamycin], for which the “Antibiotic concentration to which resistance is conferred” value in assay [1] is reported as more than 50 mg/L. Also, the MIC in assay [1] (setting [2]) is approximately 25 µg/mL (≈ 51.6 µM); in assay [1] (setting [3]) it was more than 50 µg/mL; in assay [1] (untransformed cells, LB medium), approximately 10 µg/mL (≈ 20.6 µM).

B1: EMP012: Modified GPR55 receptor (Enabled Membrane Protein), SEQ ID NO: 2, mutated relative to wild-type GPR55; used as cDNA and purified protein (protein, listed as Homo sapiens)
chain: MSQQNTSGNCLFDGMNELMKTLQFAVHIPTFVLGLLLNLLAIHGFSTFLKNRWPDYAATSIYMINLAVFDLLLVLSLPFKIVLSQVQSPFPSLCTLVECLYFVSMYGSVFTICFISMDRFLAIRYPLLVSHLRSPRKIFGICCTIWVLVWTGSIPIYSFHGKVEKYMCFHNMSDDTWSAKVFFPLEVFGFLLPMGIMGFCCSRSIHILLGRRDHTQDWVQQKACIYSIAASLAVFVVSFLPVHLGFFLQFLVRNSFIVECRAKQSISFFLQLSKCFSNVNCCLDVFCYYFVIKEFRMNIRAHRPSRVQLVLQDTTISRGAG
For B1, the “Immune response against WT-GPR55” value in the assay with WT-GPR55 is “robust and specific immune response”.

The values above are taken from patent publication US10845367B2, “Modified multispanning membrane polypeptides and methods of use thereof to screen therapeutic agents” (Abilita Bio, Inc., priority 2016, dated 2020).
